Data set [1] in a line: Murine hematotoxicity assay. The data set is classed as in vivo, BALB/c mice. To be noted: 3 mg/kg i.v. QW×4, compared to vehicle or MMAE treatment. On the procedure: Murine hematotoxicity experiments were conducted at Charles River Laboratories and the care and use of animals was conducted in accordance with the regulations of the Association for Assessment and Accreditation of Laboratory Animal Care (AAALAC). Wild type BALB/c, female, 7-8 weeks, weighing approximately 18-22 g were randomized and dosed intravenously with control or test articles at a QW×4 schedule. Dosing volume was adjusted based on body weight and was administered at 10 mL/Kg. PDCs were dissolved in 25 mM Histidine 10% sucrose pH 7 and 3 mg/kg was administered. Free MMAE payload was also tested, and similarly dissolved in 25 mM Histidine 10% sucrose pH 7 and administered to the mice at a dose of […] by i.v. injection at a QW×4 schedule. 3 days following each dose, 150 μL of whole blood was collected via submandibular method and placed in K2 EDTA tubes stored on ice. Blood neutrophil counts were performed on the day of collection by IDEXX labs. Body weights were recorded twice a week until study endpoint.
As outlined in the material and methods of Example 1, wild type BALB/c, female, 7-8 weeks, weighing approximately 18-22 g were randomized and dosed intravenously with control or test articles at a QW×4 schedule. Dosing volume was adjusted based on body weight and was administered at 10 ml/Kg. […] Free MMAE payload was also tested, and similarly dissolved in 25 mM Histidine 10% sucrose pH 7 and administered to the mice at a dose of […] by i.v. injection at a QW×4 schedule. 3 days following each dose, 150 μL of whole blood was collected via submandibular method and placed in K2 EDTA tubes stored on ice. Blood neutrophil counts were performed on the day of collection by IDEXX labs. Body weights were recorded twice a week until study endpoint.

In another data set the test system is MDA-MB-231 tumor cells. Nature of the data set: MDA-MB-231 murine xenograft efficacy model. It counts as in vivo, BALB/c Nude mice. To be noted: for body weight loss: Example 8, PDC 3 mg/kg, free MMAE 0.6 mg/kg, i.v. QW×4. The protocol: Murine xenograft experiments were conducted at WuXi AppTec and/or Charles River Laboratories and the care and use of animals was conducted in accordance with the regulations of the Association for Assessment and Accreditation of Laboratory Animal Care (AAALAC). MDA-MB-231 tumor cells (ATCC, Manassas, VA, cat #HTB-26) were grown and maintained in L15 medium supplemented with 10% heat inactivated fetal bovine serum, 1% Antibiotic-Antimycotic, and L-glutamine (2 mM) at 37° C. in an atmosphere in 5% CO2, 95% air. BALB/c Nude, female, 6-8 weeks, weighing approximately 18-22 g were purchased from Vital River Laboratory Animal Technology Co., LTD. Mice were inoculated subcutaneously at the right flank with MDA-MB-231 tumor cells (e.g., triple negative breast cancer cells) (10×10^6) in 0.2 mL of PBS with Matrigel (1:1) for tumor development. Animals were randomized and treatment was started when the average tumor volume reached approximately 150-200 mm^3 for the efficacy study. Dosing volume was adjusted based on body weight and was administered at 10 ml/Kg. […] Free MMAE payload was also tested, and similarly dissolved in 25 mM Histidine 10% sucrose pH 7 and one or more of the following doses, 0.6, 0.06 mg/kg, were administered to the mice i.v. at a QW×4 schedule. Tumor sizes were measured twice weekly in two dimensions using a caliper, and the volume in mm^3 calculated using the formula: V=0.5 a×b^2, where a and b are the long and short diameters of the tumor, respectively. TGI was calculated for each group using the formula: TGI (%)=[1−(Ti−T0)/(Vi−V0)]×100; where Ti is the average tumor volume of a treatment group on a given day, T0 is the average tumor volume of the treatment group on the first day of treatment, Vi is the average tumor volume of the vehicle control group on the same day with Ti, and V0 is the average tumor volume of the vehicle group on the first day of treatment.

The next data set deals with T1, SORT1 (Homo sapiens, UniProt Q99523).
T1 construct: Human SORT1 (78-755)-His (Acrobiosystems); His (C); purchased Acrobiosystems SON—H52H5
T1 sequence (Q99523 78-755): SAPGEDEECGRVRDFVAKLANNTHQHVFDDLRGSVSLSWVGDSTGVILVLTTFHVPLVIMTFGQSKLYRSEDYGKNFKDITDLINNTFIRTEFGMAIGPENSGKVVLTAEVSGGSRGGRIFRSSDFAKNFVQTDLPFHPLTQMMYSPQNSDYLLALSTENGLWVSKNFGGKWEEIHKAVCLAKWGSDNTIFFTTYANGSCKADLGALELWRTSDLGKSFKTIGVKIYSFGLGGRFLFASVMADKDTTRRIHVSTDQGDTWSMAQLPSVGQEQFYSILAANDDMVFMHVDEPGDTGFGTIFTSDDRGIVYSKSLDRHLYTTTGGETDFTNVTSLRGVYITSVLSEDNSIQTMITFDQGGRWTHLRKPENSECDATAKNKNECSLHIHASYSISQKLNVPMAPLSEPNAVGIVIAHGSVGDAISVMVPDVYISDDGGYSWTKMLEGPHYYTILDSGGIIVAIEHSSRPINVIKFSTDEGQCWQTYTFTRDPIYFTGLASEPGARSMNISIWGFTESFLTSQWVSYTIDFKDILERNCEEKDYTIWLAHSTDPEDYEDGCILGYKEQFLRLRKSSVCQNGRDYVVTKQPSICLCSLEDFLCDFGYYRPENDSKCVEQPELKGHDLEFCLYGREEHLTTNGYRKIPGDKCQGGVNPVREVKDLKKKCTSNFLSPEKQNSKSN
Briefly: Direct binding in fluorescence polarization (FP), FAM-labeled peptides.

Data set [2] is described as follows: Dynamic light scattering (DLS) solubility/aggregation. It counts as physicochemical. The note with it: working concentrations (250 nM, PBS, pH 7.4). On the procedure:
Samples were spun down on a bench top centrifuge, 15 minutes, 15,000 rpm, room temperature, to pellet any aggregated peptide/dust before taking a measurement. Visual inspection of the tubes was used to identify if any large pellets were formed, which is indicative of large aggregates. […] The plate was then transferred and read on the DLS instrument (Wyatt Technology DynaPro Plate Reader III) at 25° C.

Data set [3] in a line: Maximum tolerated dose (MTD) study. It counts as in vivo, BALB/c Nude mice. To be noted: 10 mg/kg single i.v. dose. The protocol: BALB/c Nude mice, female, 6-8 weeks, weighing approximately 18-22 g were purchased from the Shanghai SLAC Laboratory Animal Co., LTD. MTD studies were conducted at WuXi AppTec and the care and use of animals was conducted in accordance with the regulations of the Association for Assessment and Accreditation of Laboratory Animal Care (AAALAC). Two MTD studies were performed (a) a low dose study with doses ranging from 0.1, 0.5, 1 and 3 mg/kg and (b) a high dose study with doses ranging from 3, 5, 10 mg/kg. Dosing volume was determined based on body weight (10 ul/g) and PDCs were dissolved in 25 mM Histidine 10% sucrose pH 7 and administered i.v. at a single dose at day 0. The treatment and observation were conducted up to 7 days and MTD was defined by ≥20% body weight loss. Body weights were measured daily, death and observed clinical signs were recorded.
Doses of 3, 5, and 10 mg/kg were administered. MTD was defined by ≥20% body weight loss and body weight measured daily.

SMILES strings stand for the structures. Where a SMILES comes first, the peptide text is derived from it. [ ]: non-standard residue; d: D form. The star is where a group is joined. Dolaproine = CO[C@@H]([C@@H]1CCCN1)[C@@H](C)C(=O)O; Dil = CC[C@H](C)[C@H](NC)[C@@H](CC(=O)O)OC; X1 = C[C@@H](N*)[C@@H](O)c1ccccc1; NMeV = CN[C@H](C(=O)O)C(C)C

Protocol for SORT1: Peptides were dissolved into stock solutions in water, then brought up to final concentrations in 1×PBS, pH 7.4 and tested in DLS and CD (methods above) to ensure the peptides were soluble. Peptide concentrations were determined by quantifying the dye using the nanodrop and dye specific extinction coefficient at a specific wavelength. For FAM labeled dyes, the extinction coefficient 83000 cm^−1 M^−1 was used.
FAM labeled peptides were diluted to 1 μM in FP buffer (1×PBS, pH 7.4, 0.1% Tween-20) and serially diluted two-fold for a 12-point series to determine concentration at which the fluorescence intensity was 10,000 RFU and the polarization of the peptide was consistent. A 10× working solution would thus be 10× the concentration of FAM labeled peptide that satisfied the above criteria. […]
A 10× working solution of FAM-labeled peptides was prepared in the FP buffer (1×PBS, pH 7.4, 0.1% Tween-20). […] The 384-well plate was then centrifuged 1 min, 4000 rpm and fluorescence and polarization of dye measured on a Biotek Synergy Neo2 plate reader using the following settings (Excitation 485/20, Emission 528/20, Top read, Gain: 75, Light source: Xenon Flash, Lamp Energy: Low, Standard Dynamic range, Read speed: Normal, Delay: 0 msec, Measurements/Data Point: 10, Read Height: 9 mm). […]

For the molecule `CCCC[C@@H]1NC(=O)[C@H](CCCNC(=N)N)NC(=O)[C@H](CCCCNC(=O)CN(C)C(=O)CN(C)C(=O)CN(C)C(=O)CN(C)C(=O)CCNC(=O)CCCC(=O)N[C@H](C(=O)N[C@@H](CCCNC(N)=O)C(=O)Nc2ccc(COC(=O)N(C)[C@H](C(=O)N[C@H](C(=O)N(C)[C@@H]([C@@H](C)CC)[C@@H](CC(=O)N3CCC[C@H]3[C@H](OC)[C@@H](C)C(=O)N[C@H](C)[C@@H](O)c3ccccc3)OC)C(C)C)C(C)C)cc2)C(C)C)NC(=O)[C@H](CC(N)=O)NC(=O)[C@H](CCC(=O)O)NC(=O)[C@@H](NC(=O)[C@H](Cc2c[nH]c3ccccc23)NC(=O)[C@H](CCCNC(=N)N)NC(C)=O)CSSC[C@@H](C(=O)N[C@@H](CCCNC(=N)N)C(=O)N[C@@H](CCC(N)=O)C(=O)N[C@H](C(=O)N[C@@H](CC(C)(C)C)C(=O)O)C(C)(C)C)NC(=O)[C@H]([C@@H](C)O)NC(=O)[C@H](Cc2ccccc2)NC1=O` [Arb_cyclic_G23-PDC], the blood neutrophil counts result in data set [1] is listed as “reduced neutrophil counts”. In the data set with MDA-MB-231 tumor cells (3 mg/kg i.v. QW×4, day 22 (Example 8)), the “tumor growth inhibited relative to vehicle” value was determined as 68%. In addition, the body weight loss entry in the data set on MDA-MB-231 tumor cells is listed as “body weight loss tracked each other”.
As to `CC[C@H](C)[C@@H]([C@@H](CC(=O)N1CCC[C@H]1[C@H](OC)[C@@H](C)C(=O)N[C@H](C)[C@@H](O)c1ccccc1)OC)N(C)C(=O)[C@@H](NC(=O)[C@@H](NC)C(C)C)C(C)C` [MMAE, Monomethyl auristatin E, reference compound] (H-[NMeV]V[Dil][Dolaproine]-X1), in the data set on MDA-MB-231 tumor cells (Example 6, PDC 3, 1, 0.3 mg/kg, free MMAE at equivalency to 3 mg/kg PDC), the body weight variation entry is listed as “body weight fluctuations corresponding to treatment times”. The body weight loss entry with MDA-MB-231 tumor cells is “body weight fluctuations corresponding to treatment times”.
Consider `CC(C)C[C@H](NC(=O)[C@H](CCCNC(=N)N)NC(=O)[C@H](CC(C)C)NC(=O)[C@H](C)NC(=O)[C@H](CC(C)C)NC(=O)[C@H](CCCNC(=N)N)NC(=O)[C@H](CCC(N)=O)NC(=O)[C@H](CC(C)C)NC(=O)[C@H](C)NC(=O)[C@@H]1CCCN1C(=O)[C@H](Cc1c[nH]c2ccccc12)NC(=O)[C@@H]1CCCN1C(=O)[C@H](C)NC(=O)[C@H](CCCNC(=N)N)NC(=O)[C@@H]1CCCN1C(=O)[C@H](CC(=O)O)NC(=O)[C@@H](N)CC(=O)O)C(=O)O` [PRGN_RL], for which the “poorer affinity than the WT sequence (PRGN_WT)” value at SORT1 (binding to SORT1-Ag) was ~7 ×. In addition, in data set [2], the “solubility (DLS)” value is on record as “good solubility”.
With `CC[C@H](C)[C@@H]([C@@H](CC(=O)N1CCC[C@H]1[C@H](OC)[C@@H](C)C(=O)N[C@H](C)[C@@H](O)c1ccccc1)OC)N(C)C(=O)[C@@H](NC(=O)[C@H](C(C)C)N(C)C(=O)OCc1ccc(NC(=O)[C@H](CCCNC(N)=O)NC(=O)[C@@H](NC(=O)CCCC(=O)NCCC(=O)N(C)CC(=O)N(C)CC(=O)N(C)CC(=O)N(C)CC(=O)N[C@@H](CC(=O)O)C(=O)N[C@@H](CC(=O)O)C(=O)N2CCC[C@H]2C(=O)N[C@@H](CCCNC(=N)N)C(=O)N[C@@H](C)C(=O)N2CCC[C@H]2C(=O)N[C@@H](Cc2c[nH]c3ccccc23)C(=O)N2CCC[C@H]2C(=O)N[C@@H](C)C(=O)N[C@@H](CC(C)C)C(=O)N[C@@H](CCC(N)=O)C(=O)N[C@@H](CCCNC(=N)N)C(=O)N[C@@H](CC(C)C)C(=O)N[C@@H](C)C(=O)N[C@@H](CC(C)C)C(=O)N[C@@H](CCCNC(=N)N)C(=O)N[C@@H](CC(C)C)C(=O)O)C(C)C)cc1)C(C)C` [PRGN_RL_PDC], the “toxicity” value in data set [3] is “mild toxicity”.
In the case of `CC(C)C[C@H](NC(=O)[C@H](CC(C)C)NC(=O)[C@H](CCC(N)=O)NC(=O)[C@H](CCCNC(=N)N)NC(=O)[C@H](CC(C)C)NC(=O)[C@H](C)NC(=O)[C@@H]1CCCN1C(=O)[C@H](CC(=O)O)NC(=O)[C@H](CCCNC(=N)N)NC(=O)[C@H](CC(C)C)NC(=O)[C@@H]1CCCN1C(=O)[C@H](C)NC(=O)[C@H](CC(=O)O)NC(=O)[C@H](Cc1c[nH]c2ccccc12)NC(=O)[C@H](CCCNC(=N)N)NC(=O)[C@@H]1CCCN1C(=O)[C@H](C)N)C(=O)O` [PRGN_WT], in data set [2], the “solubility (DLS)” value is “good solubility”.
Turning to `CC(C)C[C@H](NC(=O)[C@H](CC(C)C)NC(=O)[C@H](CC(=O)O)NC(=O)[C@H](CCCNC(=N)N)NC(=O)[C@@H]1CCCN1C(=O)[C@H](CC(C)C)NC(=O)[C@H](CCCNC(=N)N)NC(=O)[C@H](C)NC(=O)[C@H](CC(C)C)NC(=O)[C@H](CCCNC(=N)N)NC(=O)[C@@H](N)CCC(N)=O)C(=O)N[C@@H](C)C(=O)N[C@@H](Cc1c[nH]c2ccccc12)C(=O)N1CCC[C@H]1C(=O)N1CCC[C@H]1C(=O)N[C@@H](C)C(=O)N[C@@H](CC(=O)O)C(=O)O` [PRGN_scr, reference compound], the “affinity in FP (direct binding to SORT1-Ag)” value on SORT1 (direct titration, FAM-labeled peptide) was “no binding”. The “solubility (DLS)” value in data set [2] is “good solubility”.

(Values after patent US20240285785A1, “TARGETING SORTILIN” (priority 2022, published 2024).)
